Laboratory results as given in US20200206172A1, “COMPOSITIONS AND METHODS FOR TREATING NEURODEGENERATIVE DISORDERS” (GNT Pharma Co., Ltd., priority 2018, published 2020).
Where “and” joins values, the source holds several entries; their conditions need not be identical. Identical values can stand only once.

How the values were obtained:
dogs with CDS [1] = test: CCDR scale questionnaire in companion dogs with CDS, randomized blind placebo-controlled clinical trial; type: in vivo, dog; set-up: key to CCDR score, 4 weeks / CCDR score, 8 weeks / CCDR score, 12 weeks / CCDR score, 16 weeks (discontinuation) / CCDR score, 20 weeks (discontinuation) / CCDR score, 12 weeks (discontinuation): CCDR scale points (13 items); ≥50 indicates CDS
Source text: (§1) The companion animals tested in the study were 22 elderly dogs (12-19 years of age) diagnosed with CDS. Each dog enrolled for the present study met the following criteria: body weight <12 kg (regardless of gender), dogs which had lived with the owner for at least 90 days, dogs which were able to take oral medicine, dogs with CDS diagnosed by investigator (canine cognitive dysfunction rating (CCDR) scale ≥50 points) and dogs with informed consent of their owners. Dogs with a pregnancy or lactating, with hypersensitivity against salicylic acid derivatives, or with the underlying disease (i.e. renal dysfunction, visual loss, heart failure, or renal failure) were excluded. In addition, dogs which had participated any other clinical trials within 90 days or dogs which had not only CDS but also other neurodegenerative diseases were excluded.
(§2) This study was a randomized, blind, placebo-controlled clinical trial to investigate the efficacy and safety of Compound 2 in dogs with CDS. To investigate the efficacy of Compound 2, two questionnaires were evaluated: CCDR scale and canine dementia scale (CADES). To measure the safety of Compound 2, not only the occurrence of adverse events was investigated but also the vital signs, physical examination, and blood tests were performed in the dogs. Compound 2 was prescribed for oral administration of 10 mg/kg once-daily dosing for 8 weeks. Subjects 3 and 4 received Compound 2 additionally for 4 weeks with approval of the principal investigator. Instead of Compound 2, subjects 18-22 received placebo for 8 weeks. In this study, we allowed the dogs to be administered Compound 2 in various ways: mix with dietary supplement (subjects 1 and 3), mix with food (subjects 2 and 6), dissolve in water (subject 4), or capsule with water (subject 5), or chewable tablet with water (subjects 7-22).
(§3) Rating scales are essential tools for CDS diagnosis, staging, assessment, and careful monitoring of the disease symptoms as well as for evaluation of the efficacy of therapeutic strategies. Several rating scales have been developed during the last decade e.g. CCDR scale. To assess the severity of CDS in this study, two questionnaires (CCDR scale and CADES) were performed before and after oral administration of Compound 2 by a veterinarian. Questionnaires include a broad range of items measuring appetite, drinking behavior, barking, elimination behavior, day/night sleeping pattern, aimless behavior, adaptive capabilities, social behavior, perceptual ability, disorientation, and memory.
CCDR scale consists of 13 items based on CDS symptoms (Table 2). The 13 kinds of behaviors included various problems related to orientation (staring blankly, getting lost in the home), memory (lack of recognition of owners, house-soiling), apathy (reduced time spent active, avoiding contact with owners), impaired olfaction (difficulty finding food), and locomotion. These problems compromise both the dog's quality of life and the dog-owner bond. Scores ≥50 on the CCDR are indicative of CDS in the aged dogs (12-19 years of age). In this study, we compared the CCDR scores before and after administration of Compound 2 in dogs with CDS.

dogs with CDS [2] = test: Canine dementia scale (CADES) questionnaire in companion dogs with CDS; type: in vivo, dog
Source text: as §1, §2, §3
To ensure and confirm the CCDR scale, we used an additional questionnaire, CADES which contains 17 items distributed into four domains, related to changes in dogs' behaviors: spatial orientation, social interaction, sleep-wake cycle, and house soiling (Table 6). It can be classified according to various stages of cognitive impairment: mild, moderate, and severe cognitive impairment. It is known well that CADES is also suitable for long-term assessment of the progression of cognitive impairment in canine, and potentially as efficacy readout for treatments.

[3] = Pharmacokinetics after oral administration in mice; type: in vivo; settings: mouse, plasma, 2.5 mg/kg
[4] = Pharmacokinetic study in beagle dogs; type: in vivo; settings: dog, plasma, oral, 20 mg/kg/day
Experimental: Based upon the safety and pharmacokinetic profile of Compound 2, a dose of 10 mg/kg/day was chosen to investigate safety and efficacy of Compound 2 in canine CDS.

in vivo = test: in vivo; set-up: species or system beagle dogs; settings: both sexes, beagle, dog, po
Experimental: The systemic toxic potential of Compound 2 in beagle dogs was investigated in Huntington Life Science, a large non-clinical contract research organization in Cambridgeshire, England. Three groups each comprising three males and three females, received Compound 2 at doses of 20, 65, or 200 mg/kg/day for 13 weeks. […] Consequently, 200 mg/kg/day was considered the no-observed-adverse-effect level (NOAEL) in dogs.

Stability test = type: physicochemical
Experimental: In stability test, Compound 2 was stable at 25° C. for at least 60 months. Additionally, the capsule and chewable formulations of Compound 2 were stable at 25° C. for at least 24 and 12 months, respectively.

dogs with CDS [5] = test: Safety assessment in dogs with CDS; type: in vivo; settings: 10 mg/kg oral once daily
Experimental: as §2
During this study, the safety of Compound 2 in dogs with CDS was evaluated at every visit.

APP/PS1 mice = test: Animal model of AD (APP/PS1 mice), preliminary data; type: in vivo; settings: oral, 2.5 mg/kg
G93A mice = test: Animal model of amyotrophic lateral sclerosis (G93A mice), preliminary data; type: in vivo; settings: oral, 2.5 mg/kg
[6] = target: T1, microsomal prostaglandin E(2) synthase-1 (mPGES-1) (Homo sapiens, UniProt O14684); settings: previous study [20]; cited from earlier work
T1 sequence (O14684 1-152): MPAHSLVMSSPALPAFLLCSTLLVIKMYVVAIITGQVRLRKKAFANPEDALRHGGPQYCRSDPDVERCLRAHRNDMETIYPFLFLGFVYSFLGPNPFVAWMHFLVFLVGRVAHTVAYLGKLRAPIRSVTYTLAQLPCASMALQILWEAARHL

[7] = tested on: mouse model of amyotrophic lateral sclerosis; settings: previous study [20]; cited from earlier work
moderate-to-severe AD = settings: cited from earlier work
CDS dogs = settings: literature [17-19]; effect in most dogs disappeared at 8 weeks after treatment; cited from earlier work
[8] = change vs 0 week, 10 mg/kg oral once daily, per individual dog, 10 mg/kg
[9] = 10 mg/kg oral once daily, per individual dog
[10] = change vs 0 week, per individual dog

O=C(O)c1cc(NCCc2ccc(C(F)(F)F)cc2)ccc1O [Compound 2, 2-hydroxy-5-[2-(4-trifluoromethyl-phenyl)-ethylamino]-benzoic acid]
CCDR score, 4 weeks (dogs with CDS [1]; 10 mg/kg oral once daily, 4 weeks of administration, individual dog (subject No.)): 38 and 40 and 55 and 56 and 53 and 54 and 60 and 52 and 50 and 43 and 63 and 49 and 30 | CCDR score, 8 weeks (dogs with CDS [1]; 10 mg/kg oral once daily, 8 weeks of administration, per individual dog): 34 and 46 and 41 and 51 and 54 and 27 and 50 and 53 and 59 and 43 and 30 and 42 | beneficial effects maintained after the last administration (dogs with CDS [1]; aged companion dogs with severe CDS, oral): at least 4 weeks | CCDR score change, 4 weeks (dogs with CDS [1]; [8]): −22 and −11 (3×) and −9 (2×) and −12 (2×) and −18 and −5 and −1 and −7 and −6 and −16 and −10 and −44 and −13 | CCDR score change, 8 weeks (dogs with CDS [1]; [8]): −26 and −5 and −23 and −16 and −11 and −40 and −24 and −6 and −2 and −10 and −9 and −7 and −19 and −44 and −20 | CCDR score, 12 weeks (dogs with CDS [1]; subjects 3 and 4, 12-week administration): 32 and 43 | CCDR score, 16 weeks (discontinuation) (dogs with CDS [1]; subjects 3 and 4, 4 weeks after discontinuation of 12-week administration): 38 and 44 | CCDR score, 20 weeks (discontinuation) (dogs with CDS [1]; subjects 3 and 4, 8 weeks after discontinuation of 12-week administration): 36 and 43 | CCDR score, 12 weeks (discontinuation) (dogs with CDS [1]; subjects 7, 8, 10, 11, 4 weeks after discontinuation of 8-week administration): 48 and 50 and 54 | cognitive function on the CCDR scale (dogs with CDS [1]; within 4 weeks of oral administration): near normal cognitive function | CADES score of house soiling (items 13-17), 4 weeks (dogs with CDS [2]; [9]): 5 (2×) and 9 and 16 and 14 and 22 (2×) and 11 and 3 and 19 (2×) and 17 and 10 and 25 and 18 and 4 and 0 | CADES score of house soiling (items 13-17), 8 weeks (dogs with CDS [2]; [9]): 4 (2×) and 0 (3×) and 8 and 12 and 18 and 14 and 21 and 20 and 5 and 19 and 17 and 25 | CADES score of sleep-wake cycles (items 11-12), 4 weeks (dogs with CDS [2]; [9]): 18 (4×) and 6 and 16 (2×) and 20 (3×) and 0 and 10 (2×) and 8 (2×) and 14 and 4 | CADES score of sleep-wake cycles (items 11-12), 8 weeks (dogs with CDS [2]; [9]): 10 and 0 (4×) and 14 and 12 (3×) and 20 (2×) and 16 (2×) and 8 and 6 | CADES score of social interaction (items 6-10), 4 weeks (dogs with CDS [2]; [9]): 5 (2×) and 14 (3×) and 17 (2×) and 13 (3×) and 0 and 25 and 15 and 10 and 18 and 20 and 19 | CADES score of social interaction (items 6-10), 8 weeks (dogs with CDS [2]; [9]): 15 (2×) and 5 and 10 (2×) and 14 and 11 and 19 and 4 and 24 and 16 and 18 and 9 and 13 and 3 | CADES score of spatial orientation (items 1-5), 4 weeks (dogs with CDS [2]; [9]): 5 (3×) and 20 (3×) and 18 (2×) and 16 and 17 and 24 (3×) and 25 (2×) and 13 and 21 | CADES score of spatial orientation (items 1-5), 8 weeks (dogs with CDS [2]; [9]): 9 and 15 (3×) and 13 (2×) and 17 and 25 and 0 and 24 and 20 (2×) and 22 and 23 and 4 | Total CADES score, 4 weeks (dogs with CDS [2]; [9]): 33 and 49 and 67 and 65 and 68 and 69 and 8 and 89 and 64 and 57 and 66 and 55 and 90 and 51 and 14 | Total CADES score, 8 weeks (dogs with CDS [2]; [9]): 38 and 20 and 45 and 53 and 58 and 78 and 4 and 85 and 55 and 63 and 57 and 64 and 40 and 67 and 7 | companion dogs showing improvement in spatial disorientation (dogs with CDS [2]; 4 weeks after administration, 10 of 17 dogs): 59% | companion dogs showing further improvement in social interaction at 8 weeks compared with 4 weeks (dogs with CDS [2]; 8 of 15 dogs): 53% | companion dogs significantly improved in sleep-wake cycle (item 11) (dogs with CDS [2]; 8 weeks after administration, 10 of 15 dogs): 67% | cognitive function by total CADES score (dogs with CDS [2]; 8 weeks after oral administration): significant improvement in cognitive function was observed from severe to moderate, weak, or normal level | companion dogs with beneficial effects on spatial orientation (dogs with CDS [2]; 8 weeks after oral administration, 9 of 15 dogs): 60% | CADES score of house soiling (items 13-17), change, 4 weeks (dogs with CDS [2]; [10]): 1 and −6 and −2 (2×) and −5 (2×) and −1 (2×) and −4 and −15 and 0 (5×) and −3 and −10 | CADES score of house soiling (items 13-17), change, 8 weeks (dogs with CDS [2]; [10]): 0 (3×) and −15 and −10 (2×) and −7 and −5 and −1 (2×) and −18 and 1 and −2 and −3 and −6 | CADES score of sleep-wake cycles (items 11-12), change, 4 weeks (dogs with CDS [2]; [10]): −2 (5×) and −4 and 4 (2×) and 0 (6×) and −18 and −6 and −12 | CADES score of sleep-wake cycles (items 11-12), change, 8 weeks (dogs with CDS [2]; [10]): −10 (3×) and −4 (2×) and −2 (2×) and −6 and 0 (3×) and −18 and 2 and −14 and −16 | CADES score of social interaction (items 6-10), change, 4 weeks (dogs with CDS [2]; [10]): −10 and 0 (6×) and −1 (3×) and −2 (2×) and −4 and −14 and −5 and −7 and −11 | CADES score of social interaction (items 6-10), change, 8 weeks (dogs with CDS [2]; [10]): 0 (3×) and −9 and −8 and −5 and −2 and 1 and −10 and −1 (2×) and −3 and −6 and −7 and −13 | CADES score of spatial orientation (items 1-5), change, 4 weeks (dogs with CDS [2]; [10]): −9 and −3 (2×) and −1 (3×) and −2 (2×) and 2 and −11 and 0 (4×) and 3 and 5 and −19 | CADES score of spatial orientation (items 1-5), change, 8 weeks (dogs with CDS [2]; [10]): −5 and −8 and −6 and −3 (2×) and −1 and 3 (2×) and −16 and 0 (4×) and −2 and −20 | Total CADES score change, 4 weeks (dogs with CDS [2]; [10]): −20 and −13 and −6 (2×) and −5 (2×) and −4 and −58 and 0 (2×) and −2 and −8 and 5 (2×) and −11 and −15 and −52 | Total CADES score change, 8 weeks (dogs with CDS [2]; [10]): −15 and −42 and −28 and −17 and −14 and 3 and −62 and −4 and −9 and −6 and −2 and −10 (2×) and −18 and −59 | AUC ([3]; read-out: AUC (area under the plasma level-time curve)): 9610 ± 1380 ng·h/mL | Cmax ([3]; read-out: Cmax (mean maximum plasma concentration)): 5190 ± 960 ng/mL | AUC [4]: 75100 ng·h/mL | Cmax [4]: 10600 ng/mL | NOAEL at 13 weeks (in vivo): 200 mg/kg/day | stable at 25° C. for (Stability test): at least 60 months | blood toxicity test (dogs with CDS [5]): no significant changes | treatment-related adverse events (dogs with CDS [5]): did not occur | improvement in cognitive and motor functions (APP/PS1 mice): maximally beneficial effects | improvement in cognitive and motor functions (G93A mice): maximally beneficial effects | mPGES-1 inhibition, effective concentration [6]: effective at nanomolar concentrations | motor function activity and life span [7]: increases of motor function activity and life span

CC12CC3CC(C)(C1)CC(N)(C3)C2 [memantine]
mental function and ability to perform daily activities (moderate-to-severe AD): a small improvement

C#CCN(C)[C@H](C)Cc1ccccc1 [selegiline]
cognitive function in CDS dogs (CDS dogs): improved within the first 2 weeks
